Measured values as given in patent US8114589B2, “Self-addressable self-assembling microelectronic integrated systems, component devices, mechanisms, methods, and procedures for molecular biological analysis and diagnostics” (Gamida For Life B.V., priority 1996, dated 2012).
Read-outs that look alike come from different tables or passages of the source. {Amino} = amino group added with ABI Aminolink 2 reagent, used to attach Texas Red

Legend:
ET-10AL capture sequence = assay: Electronically controlled fluorescent DNA/dye (ethidium bromide) detection; assay type: binding; conditions: peak ethidium bromide fluorescence after positive bias 0.05 mA, 0.03 Volt-Hours; capture ET-10AL
Protocol: Microcapillary test devices were prepared and hybridized as described in Example 2 and 3. Ethidium bromide (EB) was added to the buffer solution (˜0.05 mM EB final concentration) and the test devices were biased negative to concentrate EB (positively charged) at both the hybridized and un-hybridized microlocations. The test devices were observed by epifluorescece microscopy at 550 nm excitation and 600 nm emission.
The test devices were re-mounted biased positive
constant current at 0.05 mA for 0.03 Volt-Hours, to selectively remove the EB. Fluorescence at the un-hybridized microlocations diminished while the hybridized microlocations retained a very high level of EB fluorescence. The results are given below:
Fluorescent signal was measured using an ICCD imaging

[1] = target: streptavidin/biotin DNA probe (Streptomyces avidinii, UniProt P22629); assay: Streptavidin/biotin DNA probe capture affinity on the APEX chip; assay type: binding
streptavidin/biotin DNA probe, sequence (P22629 25-183, species assumed): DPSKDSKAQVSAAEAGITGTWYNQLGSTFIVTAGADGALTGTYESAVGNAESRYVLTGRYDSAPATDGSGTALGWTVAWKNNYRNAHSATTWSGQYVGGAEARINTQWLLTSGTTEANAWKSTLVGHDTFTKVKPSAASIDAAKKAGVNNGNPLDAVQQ

btrRCA5 to ATA5 [2] = assay: Passive hybridization versus electric field hybridization; conditions: 50 mM
Protocol: Passive Hybridization versus Electric Field Hybridization—ATA5 was electrically targeted to the first four columns of the microarray on streptavidin/agarose coated chips prepared as above, and ATA4 was targeted to the remaining column. For passive hybridization, either 5.0 nM or 0.5 nM btrRCA5 in 5×SSC (1×=0.15 M NaCl, 15 mM sodium citrate, pH 7.0) was applied for 1 min, then the chips were washed 6× in buffer and imaged. For the 3 min timepoint, fresh buffer containing btrRCA5 was applied and incubated for an additional 2 min to achieve 3 min cumulative incubation time. This approach was repeated for the remaining time points. […] Five sites, 4 with ATA5 previously attached and 1 with ATA4, were electronically targeted using 3.1 V total, (approximately 500 nA/site). […] In both passive and electric field mediated hybridization, the background signal present at the ATA4 sites was subtracted from the signal present at ATA5 sites.

[3] = tested on: btrRCA5 to ATA5 capture oligonucleotide; assay: Accumulation and electronic hybridization in test buffers; conditions: in words
Protocol: Microelectronic Chips, Permeation Layer and Instrumentation—These have been described previously with the following exception. The permeation layer employed herein has an underlayer of agarose beneath the top streptavidin-containing agarose layer (approximately one micron in total thickness). To make the underlayer, […] glyoxal agarose (2%) was spun on at 2000 rpms for 20 sec prior to the application of the streptavidin-agarose layer. In brief, the 5580 series APEX chip used for these experiments consists of a 5×5 array of […] circular microelectrodes with […] microelectrodes at each corner of the array. Chips were mounted on a micromanipulator stage and the microelectrodes activated by a power supply and appropriately controlled relay switches. Fluorescently labeled oligonucleotides on the chip were visualized using oblique illumination with two 594 nm HeNe lasers and the images were quantified using either NIH Image or IPLab Spectrum software packages.
Accumulation and Hybridization—Two biotinylated capture oligonucleotides, ATA5 and ATA4 were electronically transported and localized at adjacent microelectrodes. The solution was removed and the chip washed 3-4× in test buffer. Buffers employed in these studies are listed in Table 3 and were utilized at the listed pH values and concentrations presented.
The L-isomers of amino acids were used, unless otherwise noted. The chip was equilibrated in test buffer for 5-10 min. Then fresh buffer containing 10 nM BODIPY-Texas Red labeled RCA5 (btrRCA5), an oligonucleotide complementary to ATA5 but not ATA4 (RS paper) was applied.
The […] microelectrodes were employed as cathodes and one microelectrode within the array used as the corresponding anode. Accumulation was assessed by sourcing a 500 nA constant current to individual microelectrodes for 30 sec and monitoring the accumulation of fluorescence at the positively-biased (anode) site in the microelectrode array. Signal arising from non-fluorescent sources (ie. thermal noise, etc.) was subtracted. Experiments examining the effect of different currents upon signal accumulation were conducted in a similar fashion except that the applied current varied from 100 nA to 1 mA. […] For the comparison between conductivities of various buffers, the data is presented as fold increase over initial fluorescence to account for chip-to-chip variation as well as laser illumination variations in signal levels. For other experiments, the data is presented as attomol product versus time, after converting^2 the observed fluorescence intensity to moles of labeled oligonucleotide.
Following accumulation at one microelectrode location, the buffer was removed and fresh buffer containing btrRCA5 applied. An adjacent microelectrode was then sourced in a similar fashion. Upon completion, the buffer was removed and the chip washed 5-7× with test buffer without btrRCA5. The pair of previously targeted microelectrodes were then illuminated and the fluorescence present at each site quantified. Control experiments utilized a bodipy-Texas Red labeled oligonucleotide complementary to ATA4 to verify the integrity and concentration of the ATA4 capture oligonucleotide. Percent hybridization efficiency was calculated as follows: (complementary oligonucleotide signal−noncomplementary signal)/(signal present immediately prior to the end of the applied current)×100.

[4] = tested on: Reporter DNA to DNA1 or PNA1 capture; assay: Hybridization of phosphodiester-linked oligonucleotides versus PNA analogues; conditions: 200 nA versus 500 nA
btrRCA5 to ATA5 [5] = assay: Passive hybridization at different pHs
Excerpt: Passive Hybridization at Different pHs—Biotinylated ATA5 and ATA4 were electronically targeted to adjacent sites upon streptavidin/agarose coated microarrays. […] A parallel hybridization was done in 6×SSC. After this hybridization period, the chips were washed in 0.2×STE, 0.1% sodium dodecyl sulfate, as above and the remaining fluorescence at each site quantitated. Fluorescence values present at ATA4 sites were subtracted from adjacent ATA5 sites and the remaining fluorescence converted to attomol btrRCA5 specifically hybridized. Additional experiments repeated this methodology and also examined buffer adjusted with concentrated acetic acid (at the pI and at pH 6 and 5).

[6] = Buffer capacity, pH and conductivity of buffers used on the APEX chip; conditions: for PH: NaPO4: 20 mM adjusted to pH 7.4
DNA = DNA transport (accumulation) on the APEX chip; conditions: in words, same field conditions
[7] = tested on: target DNA to the specific capture DNA; assay: DNA hybridization sensitivity on the APEX chip; conditions: normal DNA
[8] = cited from earlier work; for pK1 / pK2 / pK3: Table 2
Ras-G = assay: Ras-12 single point mutation hybridization with 15-mer probes; assay type: binding
Excerpt: In the Ras-12 example, 15-mer point mutation specific probes were electronically hybridized to 30-mer target sequences attached to the microlocations on test devices. The polarity at the microlocations was biased negative, and the hybrids were subjected to constant current for a given time, providing a defined power level which denatures the mis-match without affecting the perfect match.
Test devices were fabricated from microcapillary tubes as described previously in the specification. Attachment sequences Ras-G and Ras-T were periodate oxidized and covalently bound to the addressed microlocations.
Ras-G microlocation were then hybridized with Ras-1, Ras-2 or Ras-3. Ras-1 is the perfect match to Ras-G. Ras-2 is a one base pair mismatch (G-A). Ras-3 is a two base pair mismatch (G-A and G-T). The G-A mis-match produces the least destabilization to the DNA duplex, and is therefore the most difficult to distinquish from the perfect match.
Conventional hybridization was first carried out and the microlocations were examined fluorescently to measure to what extent complementary sequences were hybridized. The test devices (microcapillaries) were re-mounted and electronic hybridization was then carried out. […] The procedure and results are shown below: […]

Row | Compound | Normalized Signal (ET-10AL capture sequence) | SA-Biotin T12 Sensitivity [1] | conductivity [6] [μS] | PH [6] | transport (DNA) | pK1 [8] | pK2 [8] | pK3 [8] | pI [8] | also measured
1 | 5′-Amino-TGCGAGCTGCAGTCAGACAT (DNA TGCGAGCTGCAGTCAGACAT; DNA, 5' {Amino}, backbone not given here; further chemistry not fully specified) [ET-21A] | 1 | – | – | – | – | – | – | – | – | –
2 | N[C@@H](Cc1c[nH]cn1)C(=O)O [Histidine] | – | 3 × 10^6 | 212.0 | 7.6 | good transport | pK1 - 1.8 | pK2 - 6.0 | pK3 - 9.0 | 7.47 | hybridization in the absence of an applied electric field (btrRCA5 to ATA5 [2]): No hybridization was observed; support of sequence specific electronic hybridization [3]: demonstrated specific hybridization; DNA:DNA hybridization [4]: only occurs well at 500 nA; PNA:DNA hybridization [4]: occurs at roughly equal efficiencies at either current; passive hybridization (btrRCA5 to ATA5 [5]; at its pI (pH 7.5), 50 mM): does not facilitate hybridization; passive hybridization (btrRCA5 to ATA5 [5]; pH 6.0 and 5.0, 50 mM): accelerated hybridization; conductivity ([6]; hi purity): 172.0 μS; Hybridization Sensitivity of DNA [7]: 3×10^6 targets; pH of the solution (200 nA): > 6; pH of the solution (500 nA): > 5; pH above the surface of the permeation layer (not told): > 5
3 | 3′-CC-GCG-GCC-GCC-ACA-C-5′-(TR) (DNA CCGCGGCCGCCACAC; TR label, further chemistry not given here; listed 3' to 5') [Ras-1] | – | – | – | – | – | – | – | – | – | signal ratio of perfect match (Ras-G/Ras-1) to 1 bp mis-match (Ras-G/Ras-2) (Ras-G; conventional hybridization, 5×SSC 15 minutes 40° C., washes): about 10 to 1; signal ratio of perfect match (Ras-G/Ras-1) to 1 bp mis-match (Ras-G/Ras-2) (Ras-G; electronic stringency control, 0.15 mA at 150 V for 4 minutes, 20° C.): > 100 to 1
4 | 5′-Amino-CCT GCT CAT GAG TCT CTC (DNA CCTGCTCATGAGTCTCTC; DNA, 5' {Amino}, backbone not given here; further chemistry not fully specified) [ET-11AL] | >200 | – | – | – | – | – | – | – | – | –
5 | NCCCC[C@H](N)C(=O)O [Lysine] | – | >7.5 × 10^10 | 477.0 | 9.6 | fair transport | pK1 - 2.2 | pK2 - 8.9 | pK3 - 10.3 | 9.74 | –
